Legend:
[1] = test system: splenic CD4+ T cells from CIA-induced DBA/1 J mice; assay: Splenic CD4+ T cell recall culture from CIA mice after oral peptide (proliferation, cytokine ELISA); format: cell-based, mouse
Experimental: (A,B) The MycHSP70_287–306 peptide or control (PBS alone) was orally administered to bovine type II collagen-immunized DBA/1 J mice after the occurrence of CIA for 5 continuous days (n = 12). Mice were sacrificed on day 35. Arthritis scores were measured by finger and paw swelling, and histological scores were measured by cell infiltration (C), pannus formation (P), and bone destruction (B). (C) Splenic CD4^+ T cell proliferation from CIA-induced DBA/1 J mice in response to a recall antigen (Ag) stimulation (MycHSP70_287–306 and BiP336–355 epitopes, and heat-denatured bovine type II collagen (BC II)). Proliferation was determined by[3]-H thymidine incorporation. (D) Serum anti-BiP and anti-BC II antibody titers were measured by ELISA. (E,F) Mouse IL-10 and TGF-beta1 concentrations in the splenic CD4^+ T cell culture were measured by ELISA.
HLA-DR4 transgenic mice were obtained from Taconic, immunized twice (day 0, 14) with 100 μg of MycHSP70 with the same volume of complete Freund’s adjuvant subcutaneously into the tails, and sacrificed on day 21. MACS-purified CD4^+ T cells (1 × 10^5/mL) were cultured with irradiated splenocytes (1 × 10^6/mL) and an antigen (10 μg/mL) in RPMI 1640 medium supplemented with 5% FCS, 2 mM L-glutamine, 100 U/ml penicillin, 100 μg/ml streptomycin, and 5 × 10^−5 M 2-mercaptoethanol in a humidified incubator at 37 °C, 5% CO2, for 72 h. ^3H-thymidine was pulsed to each well, cells were harvested after an 18-hour incubation, and analyzed with a scintillation counter.
CIA in the background of DBA/1 J female mice (SLC Japan) was performed and arthritis scores were acquired as previously described. In the therapeutic experiments, mice were administered 200 μg of MycHSP287–306 peptides orally for 5 continuous days following the onset of arthritis. Mice were sacrificed on day 35, and the CD4^+ T cell culture was performed as described above. Mouse cytokine concentrations in the supernatants were measured using a mouse IL-10 ELISA kit and mouse/human TGF-beta 1 ELISA kit (eBioscience) according to the manufacturer’s protocol. Tissue samples were embedded in paraffin wax after 10% formaldehyde fixation and decalcification. Sections were stained with hematoxylin and eosin. Synovial tissues were graded by mononuclear cell infiltration, pannus formation, and cartilage erosion, as described previously. All animal experiments were conducted in accordance with Institutional and National Guidelines, and the protocols were approved by the Ethical Committee on Animal Experiments of the University of Tokyo. […]
The experimental protocol was the same as Figure 6.
(A)(B)Mouse IL-17 and IFN-gamma concentrations in the splenic CD4+ T cell
culture was measured by ELISA (Mouse cytokine ELISA ready-set-go,
eBioscience) according to the manufacture’s protocol. […]

[2] = test system: HLA-DR4-positive HD PBMCs; assay: Proliferation of healthy donor PBMCs in response to peptide (3H-thymidine uptake); format: cell-based, human; conditions: HLA-DR4-positive healthy donors (SE +/− n = 10), peptide 10 μg/mL
Experimental: Figure 3 MycHSP70_287–306 was a HLA-DR4-restricted epitope in RA. (A) The proliferation of PBMCs in RA patients (Shared epitope (SE) +/+ n = 12, SE +/− n = 22, SE−/− n = 9) and HDs (SE +/− n = 10) in response to MycHSP70_287–306. Proliferation was determined by the incorporation of [3]-H thymidine. The stimulation index (SI) was calculated using the following equation: (median thymidine uptake to an antigen)/(median thymidine uptake in the absence of an antigen). Horizontal line: the median. (B) Amino acid sequences of MycHSP70 (lower lines) and human BiP (upper lines) near the epitopes. Epitope sequences are indicated in bold letters. […]
PBMCs (1 × 10^6/mL) isolated with Ficoll-Paque (GE Healthcare) were cultured in the presence or absence of each peptide (10 μg/mL) with RPMI 1640 medium supplemented with 10% human serum, 2 mM L-glutamine, 100 U/ml penicillin, and 100 μg/ml streptomycin in a humidified incubator at 37 °C, 5% CO2, for 96 hours. […] Counts per minute were measured with a scintillation counter. In some experiments, the culture supernatants were collected after a 72-hour incubation and cytokine concentrations were measured in the culture supernatants by a human IFN-γ high sensitivity ELISA kit and human IL-17 high sensitivity ELISA kit (eBioscience). […]

[3] = MycHSP70_287–306 and BiP336–355 recall stimulations, peptide-treated mice, ELISA
[4] = mice given MycHSP70_287–306 orally vs PBS, 3H-thymidine

## DRTRKPFQSVIADTGISVSE [MycHSP70_287–306]
[1]; [3]
  secretion of IL-10 from CD4+ T cells: induced
  secretion of TGF-β1 from CD4+ T cells: induced
[1]; [4]
  proliferation of CD4+ T cells in response to BiP336–355 recall: reduced
  proliferation of CD4+ T cells in response to MycHSP70_287–306 recall: reduced
[1]; mice given MycHSP70_287–306 orally vs PBS, heat-denatured BC II recall
  bovine type II collagen-specific T cell proliferation: suppressed
[1]; mouse IL-17 and IFN-gamma by ELISA, mice given peptide orally vs PBS (Supplementary Figure S2)
  pro-inflammatory cytokine secretion from CD4+ T cells: suppressed
[2]
  peptide-induced proliferation of HD PBMCs: not observed

Source: publication PMC4772543, “Immune responses to Mycobacterial heat shock protein 70 accompany self-reactivity to human BiP in rheumatoid arthritis” (Scientific Reports, 2016)
